The record followed here is patent US10682371B2, “Small molecule conjugates specifically activated in tumor microenvironment for targeting and use thereof” (priority 2014, dated 2020).

Like-named read-outs stand apart in the source and are kept apart here.

Assay [1] deals with D121 lung tumor cells. In kind it is in vivo, C57 mice. The following applies: for Treatment effects on C57 mice, in words: compared to the control group and the other treatment groups; for Effect together with PDL1-antibody in promoting immunization and treatment, in words: combination with PDL1-antibody. The essentials: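 Endpoint is tumor inhibition rate from tumor size (mm^3) after weekly drug treatment for 4 weeks, begun once s.c. tumors from 10^6 live D121 cells reached 0.3-0.4 cm. Before challenge, C57 mice received three i.p. doses of 5×10^5 irradiated D121 cells, two weeks apart, or saline.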

In assay [2] the test system is tumor CD8+ T cells. In kind it is in vivo, C57 mice. The following applies: for CD8: CD45 (%): CD8 positive cells in CD45 positive cells of tumor. The essentials:
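Tumour tissue homogenised and single cells filtered, washed, then stained 1 h at ambient temperature with CD45-PE and CD8-FITC antibodies. After washes in PBS with 1% FBS, flow cytometry gave the fraction of CD8⁺ cells among CD45⁺ leucocytes.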

For assay [3], the system named is Human heart. In kind it is biochemical.
For assay [4], the system named is Human breast cancer MDA-MB435 tumor tissue homogenate. In kind it is biochemical. The method, then: (§1) At 37 °C, sample compounds were added into 100 μg acidized tumor tissue homogenates (pH6.0) in a concentration of 1 mg/ml.
(§2) At 37 °C, sample compounds were added into 100 μg acidized human breast cancer (MDA-MB435) tumor tissue homogenates (pH6.0) in a concentration of 1 mg/ml.
(§3) […], sample compounds were added into 100 μg acidized tumor tissue homogenates (pH6.0) in a concentration of 1 mg/ml.
as §2
(§4) At 37 °C, sample compounds were added into 100 μg acidized tumor tissue homogenates in a concentration of 1 mg/ml.
(§5) In the experiments, at 37 °C, compounds were added into proteases in 100 μg acidized tumor tissue homogenates in a concentration of 1 mg/ml. […] Meanwhile certain compounds produced in the screening were compared and their activation efficiency in same tissue was analyzed.
(§6) At 37° C., compounds were added into proteases in 100 μg acidized tumor tissue homogenates in a concentration of 1 mg/ml.

Assay [5] has as its system Human renal cancer OS-RC-2 tumor tissue homogenate. In kind it is biochemical. The protocol: as §1, §3, §4, §5, §6
The test system of assay [6] is Human chronic leukemia K562 tumor tissue homogenate. In kind it is biochemical. The protocol: as §1, §3, §4, §5, §6
For assay [7], the system named is Human non-small cell lung cancer A549 tumor tissue homogenate. In kind it is biochemical. The protocol: as §1, §3, §4, §5, §6
In assay [8] the test system is Human liver cancer Hepg2 tumor tissue homogenate. In kind it is biochemical. The method, then:
as §1, §3, §4, §5, §6

For assay [9], the system named is Human pancreatic cancer Panc-1 tumor tissue homogenate. In kind it is biochemical. The protocol: as §1, §3, §4, §5, §6
The test system of assay [10] is Human prostate cancer PC-3 tumor tissue homogenate. In kind it is biochemical. The method, then:
as §1, §3, §4, §5, §6

In assay [11] the test system is Human colon cancer HT-29 tumor tissue homogenate. In kind it is biochemical. The protocol:
as §1, §3, §4, §5, §6

The test system of assay [12] is Human ovarian cancer SK-OV-3 tumor tissue homogenate. In kind it is biochemical. The method, then: as §1, §3, §4, §5, §6
Setting [13] is: D121 immunized C57 mice, drugs weekly for 4 weeks, Day 18 (Example 23).
The mark [14] stands for this setting: D121 immunized C57 mice, 13.2 μmol/kg weekly, PDL1 antibody 5 μg/kg where combined, Day 18.
Where [15] appears, read: Table 39, immunized C57 mice, D121, drugs 13.2 μmol/kg, PDL1-antibody 5 μg/kg, weekly for 4 weeks, Day 18.
[16] abbreviates: Table 27, immunized C57 mice, D121 lung tumor, drugs weekly for 4 weeks, Day 18.

As to `COCCOCCOCCOCCOCCOCCOCCOCCOCCOCCOCCOCC(=O)N[C@H](C)C(=O)N[C@H](C)C(=O)N[C@H](CC(N)=O)C(=O)Nc1ccc(COC(=O)OC(C(=O)OC2C[C@@]3(O)[C@@H](OC(=O)c4ccccc4)[C@H]4[C@](C)(C(=O)[C@H](OC(C)=O)C(=C2C)C3(C)C)[C@@H](O)CC2OC[C@]24OC(C)=O)[C@@H](NC(=O)c2ccccc2)c2ccccc2)cc1` (stereo partly drawn) [S3′], in [1] (setting [13]), the “Size of tumor (mm^3) Day 18” value was 357.63 ± 194.54 mm^3. Besides, the “inhibitory rate on tumor % Day 18” value in [1] (setting [13]) turned out to be 77.3%. For the same compound, the “Treatment effects on C57 mice, in words” value in [1] is on record as “greatly improved”. The “CD8: CD45 (%)” value in [2] (D121 immunized C57 mice (Example 23)) came out at 16.7%. Also, the “Activation ratio (%) in homogenates from different tumor tissues” value in [3] (Human heart, 1 mg/ml, 37°) is “none”; in [4] (Human breast cancer MDA-MB435, 100 μg acidized homogenate pH6.0, 1 mg/ml, 37°), 90.4%; in assay [5] (Human renal cancer OS-RC-2, 100 μg acidized homogenate pH6.0, 1 mg/ml, 37°), 86.4%; in assay [6] (Human chronic leukemia K562, 100 μg acidized homogenate pH6.0, 1 mg/ml, 37°), 70.2%; in [7] (Human non-small cell lung cancer A549, 100 μg acidized homogenate pH6.0, 1 mg/ml, 37°) it was 81.4%; in [8] (Human liver cancer Hepg2, 100 μg acidized homogenate pH6.0, 1 mg/ml, 37°), 83.5%. In addition, the “Activation ratio (%) in homogenates from different tumor tissues” value in assay [9] (Human pancreatic cancer Panc-1, 100 μg acidized homogenate pH6.0, 1 mg/ml, 37°) turned out to be 91.5%; in assay [10] (Human prostate cancer PC-3, 100 μg acidized homogenate pH6.0, 1 mg/ml, 37°), 96.3%; in [11] (Human colon cancer HT-29, 100 μg acidized homogenate pH6.0, 1 mg/ml, 37°) it was 91.4%; in assay [12] (Human ovarian cancer SK-OV-3, 100 μg acidized homogenate pH6.0, 1 mg/ml, 37°) it was 79.3%. In assay [4] (human breast cancer (MDA-MB435) tumor tissue homogenates pH6.0, 100 μg, 1 mg/ml, control compounds vs S1′-S4′), the “activation efficiency (%)” value turned out to be 91.5%.
Regarding “4-N—(N—(N—(N-(6-maleimido caproyl)-L-alanyl)-L-alanyl)-L-asparaginyl)-amino benzyl alcohol-MMAE-carbamate [Compound S6]”, in [1] (setting [14]), the “Inhibitory rate on tumor Day 18” value is listed as 29.47. For the same compound, in assay [1] (setting [14]), the “Size of tumor (mm^3) Day 18” value worked out at 957.46 ± 257.87 mm^3. Also, the “Treatment effects on C57 mice, in words” value in [1] is listed as “improved treatment effect as compared to the daunorubicin group”. Besides, in [2] (D121 immunized C57 mice, 13.2 μmol/kg, ratio of CD8 positive cells in CD45 positive cells of tumor), the “CD8: D45 (%)” value is listed as 13.0%. Also, the “Activation Efficiencies (%)” value in assay [3] (Human heart homogenate, 1 mg/ml compound) stood at 5.3%; in [4] (Human breast cancer MDA-MB435 tumor tissue homogenate (30 μg/ml), 1 mg/ml compound), 25.6%; in assay [5] (Human renal cancer OS-RC-2 tumor tissue homogenate (30 μg/ml), 1 mg/ml compound) it was 20.4%; in assay [6] (Human chronic leukemia K562 tumor tissue homogenate (30 μg/ml), 1 mg/ml compound) it was 28.4%; in [7] (Human non-small cell lung cancer A549 tumor tissue homogenate (30 μg/ml), 1 mg/ml compound), 27.4%; in assay [8] (Human liver cancer Hepg2 tumor tissue homogenate (30 μg/ml), 1 mg/ml compound), 26.7%. For the same compound, the “Activation Efficiencies (%)” value in assay [9] (Human pancreatic cancer Panc-1 tumor tissue homogenate (30 μg/ml), 1 mg/ml compound) is 17.3%; in assay [10] (Human prostate cancer PC-3 tumor tissue homogenate (30 μg/ml), 1 mg/ml compound) it was 13.2%; in assay [11] (Human colon cancer HT-29 tumor tissue homogenate (30 μg/ml), 1 mg/ml compound), 22.4%; in assay [12] (Human ovarian cancer SK-OV-3 tumor tissue homogenate (30 μg/ml), 1 mg/ml compound) it was 23.5%.
Turning to `COCCOCC(=O)NCCCC[C@H](NC(=O)COCCOC)C(=O)N[C@H](C)C(=O)N[C@H](C)C(=O)N[C@H](CC(N)=O)C(=O)Nc1ccc(COC(=O)OC(C(=O)OC2C[C@@]3(O)[C@@H](OC(=O)c4ccccc4)[C@H]4[C@](C)(C(=O)[C@H](O)C(=C2C)C3(C)C)[C@@H](O)CC2OC[C@]24OC(C)=O)[C@@H](NC(=O)OC(C)(C)C)c2ccccc2)cc1` (stereo partly drawn) [Compound B1], the “Size of tumor (mm^3) Day 18” value in assay [1] (setting [15]) is recorded as 271.36 ± 157.56 mm^3. In addition, the “inhibitory rate on tumor % Day 18” value in assay [1] (setting [15]) is 83.25%. Besides, the “Effect together with PDL1-antibody in promoting immunization and treatment, in words” value in assay [1] is given as “excellent synergistic effect”. Further, the “Treatment effects on C57 mice, in words” value in [1] is on record as “greatly improved”. The “CD8: CD45 (%)” value in assay [2] (Table 39, flow cytometry, drugs 13.2 μmol/kg, PDL1-antibody 5 μg/kg) is given as 18.9%. The “activation efficiency (%)” value in assay [3] (Table 34, Human heart, 1 mg/ml, acidized homogenate, Docetaxel release by HPLC) is 12.2%; in [4] (Table 34, Human breast cancer MDA-MB435, 1 mg/ml, acidized homogenate, Docetaxel release by HPLC) it was 93.5%; in [5] (Table 34, Human renal cancer OS-RC-2, 1 mg/ml, acidized homogenate, Docetaxel release by HPLC), 90.9%; in assay [6] (Table 34, Human chronic leukemia K562, 1 mg/ml, acidized homogenate, Docetaxel release by HPLC), 69.0%; in [7] (Table 34, Human non-small cell lung cancer A549, 1 mg/ml, acidized homogenate, Docetaxel release by HPLC), 91.2%; in [8] (Table 34, Human liver cancer Hepg2, 1 mg/ml, acidized homogenate, Docetaxel release by HPLC), 76.3%. The “activation efficiency (%)” value in assay [9] (Table 34, Human pancreatic cancer Panc-1, 1 mg/ml, acidized homogenate, Docetaxel release by HPLC) was 86.9%; in assay [10] (Table 34, Human prostate cancer PC-3, 1 mg/ml, acidized homogenate, Docetaxel release by HPLC), 76.1%; in assay [11] (Table 34, Human colon cancer HT-29, 1 mg/ml, acidized homogenate, Docetaxel release by HPLC) it was 83.9%; in assay [12] (Table 34, Human ovarian cancer SK-OV-3, 1 mg/ml, acidized homogenate, Docetaxel release by HPLC) it was 93.1%.
In the case of `COCCOCC(=O)NCCCC[C@H](NC(=O)COCCOC)C(=O)N[C@H](C)C(=O)N[C@H](C)C(=O)N[C@H](CC(N)=O)C(=O)Nc1ccc(COC(=O)OC(C(=O)OC2C[C@@]3(O)[C@@H](OC(=O)c4ccccc4)[C@H]4[C@](C)(C(=O)[C@H](OC(C)=O)C(=C2C)C3(C)C)[C@@H](O)CC2OC[C@]24OC(C)=O)[C@@H](NC(=O)c2ccccc2)c2ccccc2)cc1` (stereo partly drawn) [Compound A1], the “Size of tumor (mm^3) Day 18” value in assay [1] (setting [16]) worked out at 261.36 ± 178.3 mm^3. For the same compound, in assay [1] (setting [16]), the “inhibitory rate on tumor % Day 18” value came out at 84.52%. Also, the “Effect together with PDL1-antibody in promoting immunization and treatment, in words” value in assay [1] is “excellent synergistic effect”. The “Treatment effects on C57 mice, in words” value in assay [1] was “greatly improved”. In addition, in [2] (Table 27, flow cytometry, immunized C57 mice, D121), the “CD8: CD45 (%)” value was found to be 20.4%. Moreover, the “Activation ratio (%) in homogenates from different tumor tissues” value is “none” in assay [3] (Human heart, 1 mg/ml, acidized homogenate pH6.0, Paclitaxel release by HPLC); 95.6% in [4] (Human breast cancer MDA-MB435, 1 mg/ml, acidized homogenate pH6.0, Paclitaxel release by HPLC); 89.2% in [5] (Human renal cancer OS-RC-2, 1 mg/ml, acidized homogenate pH6.0, Paclitaxel release by HPLC); 67.7% in assay [6] (Human chronic leukemia K562, 1 mg/ml, acidized homogenate pH6.0, Paclitaxel release by HPLC); 89.5% in [7] (Human non-small cell lung cancer A549, 1 mg/ml, acidized homogenate pH6.0, Paclitaxel release by HPLC); 98.3% in [8] (Human liver cancer Hepg2, 1 mg/ml, acidized homogenate pH6.0, Paclitaxel release by HPLC). Also, the “Activation ratio (%) in homogenates from different tumor tissues” value is recorded as 97.8% in assay [9] (Human pancreatic cancer Panc-1, 1 mg/ml, acidized homogenate pH6.0, Paclitaxel release by HPLC); 100.3% in assay [10] (Human prostate cancer PC-3, 1 mg/ml, acidized homogenate pH6.0, Paclitaxel release by HPLC); 82.4% in assay [11] (Human colon cancer HT-29, 1 mg/ml, acidized homogenate pH6.0, Paclitaxel release by HPLC); 91.4% in assay [12] (Human ovarian cancer SK-OV-3, 1 mg/ml, acidized homogenate pH6.0, Paclitaxel release by HPLC). The “activation efficiency (%)” value in assay [4] (Table 24, acidized human breast cancer (MDA-MB435) tumor tissue homogenates pH6.0, 1 mg/ml, Paclitaxel release by HPLC) is listed as 95.1%.
